The subject of data set [1] is BGC-823. Put plainly: PI staining flow cytometry, cell cycle. The settings on record: 24 h. It counts as cell-based. From the text: PI specificity is combined with DNA, and the fluorescence intensity is in a good linear relationship with the combination of PI. After cell fixation, PI staining was used for quantitative analysis of DNA content in cells by flow cytometry. Since the amount of DNA in different cell cycles varies, it can be determined that the drug actions on the cell cycle. In cell apoptosis, there are many characteristic changes in the cell and molecular level, and the most characteristic of the change of nucleus is the change of nucleus. Due to activate apoptosis cells, DNA degradation, reduce the cell DNA, and therefore can be in the GO/G1 peak appeared before a diploid apoptosis peak (sub-G1), […] pyrolysis peak integer times of DNA, no less than […] pyrolysis peak.
In addition, high concentrations of drugs can also reduce the proportion of S stage cells.
FIG. 3-2 PI staining results for BGC-823.

The subject of data set [2] is BGC-823. Put plainly: Anti-cancer cells proliferation activity (MTT, 48 h). Type of data set: cell-based. To be noted: Homo sapiens, BGC-823, MTT. How it is done: (§1) Anti-cancer cells proliferationactivity of in vitro CH-j and CH-f were shown in TABLE 2 for the results of the screening of 5 cancers cells.
FIG. 2: The initial screening results of the anticancer activity of BGC-823 (MTT, for 48 h), and X-coordinate is the drug concentration (MTT, for 48 h), and Y-coordinate the cell survival rate (%) in vitro.

For data set [3], the system named is HIF-1β. Put plainly: HIF-1β expression in BGC-823, immune-printing. It counts as cell-based. The settings on record: 0, 2.5, 5, 10 μM for 1 h, then insulin. How it is done: BGC-823 was treated with 0, 2.5, 5, 10 μM CH-j for 1 h, then the 2 μM insulin was added, and 2 h were cultured, and the cells were collected and lysed.
FIG. 4: CH-j effect on the HIF-1 of BGC-823 was treated with 0, 2.5, 5, 10 μM CH-j for 1 h, then added 0.2 μM insulin culture for 24 h, and the HIF-1α and HIF-1β were determined by the immune imprinting method.

Data set [4] concerns 5 cancers cells (MCF-7, H-460, BGC-823, PC-3, Hep G2). Put plainly: Anti-cancer cells proliferation activity, average of 5 cancer cells. It counts as cell-based. The settings on record: for IC50: average of 5 cancer cells.
Text: as §1

Data set [5] has as its system H-460. Put plainly: Anti-cancer cells proliferation activity (MTT, 48 h). It counts as cell-based. To be noted: Homo sapiens, NCI-H460, H-460, MTT.
Text: as §1

The subject of data set [6] is PC-3. The description is as above. It counts as cell-based. To be noted: Homo sapiens, PC-3, MTT.
Text: as §1

The subject of data set [7] is MCF-7. The data set is described as above. It counts as cell-based. The settings on record: Homo sapiens, MCF7, MCF-7, MTT.
Text: as §1

In data set [8] the test system is Hep G2. The data set is described as above. Type of data set: cell-based. To be noted: Homo sapiens, HepG2.
Text: as §1

Data set [9] can be described thus: Pharmacokinetics by oral in monkey (urine drug concentration-time curve). To be noted: rhesus, monkey (n = 6), 3 mg/kg. It counts as in vivo.
Data set [10] relates to MCF-7. Put plainly: Autophagy in MCF-7. Type of data set: cell-based. To be noted: 50 μM for 9 h and 24 h.
A short description of data set [11]: Tissue distribution in rat, 2 h. It counts as in vivo. The method, then:
The distribution results of CH-j tissue distribution were shown in FIG. 6, when CH-j 100 mg/kg rat by venous intravenous (i.v.) or oral (p.o.) 2 h. […] CH-j by oral in the stomach concentration of the large, about 2 time higher than other tissues. […] Compared with the intravenous administration, the oral administration was completely absorbed and the bioavailability was close to 100%.
FIG. 6: 2 h distribution of the drug (100 mg/kg) by CH-j rats: Y-coordinate is the concentration of CH-j (μg/g), by intravenous (i.v.), by oral (p.o.).

In data set [12] the test system is Bcl-2. Put plainly: Bcl-2 expression in MCF-7. The settings on record: 10 μM for 24 h. Type of data set: cell-based.
The subject of data set [13] is BGC-823 and Hep G2. Put plainly: H2O2 level in cancer cells, PF1-H2O2 fluorescent probe. To be noted: BGC-823 and Hep G2, CH-j 5-10 μM. It counts as cell-based. How it is done: The cells are cancer cells (MCF-7, GBC-823, Hep G2) and normal cells (Liver, COS-7, PBMCs). According to the literature [Scientific Reports, 2015, 5: 13626; Anti-cancer Agents in Medicinal Chemistry, 2016, 16: 914-924.], in vitro cultured cells was given to CH-j 25 μM for 3.5 h, added PF1-H2O2 selective fluorescence probe 10 μM for 0.5 h and detected the concentration of H2O2 in cells, and performed fluorescence imaging by results shown in FIG. 1.
FIG. 1-2: The effect of CH-j/BA-j to Hep G2 and BGC-382 in the levels of H2O2: in which the X-coordinate is the concentration of CH-j/BA-j concentration (μM), and Y-coordinate is the intracellular levels of H2O2 (μM) for 4 h with PF1-H2O2 10 μM by Fluorescence Microplater Reader (488 nm/525 nm).

Data set [14] can be described thus: Main metabolic pathways, glucose aldehyde acid metabolism. To be noted: in vivo. From the text:
(I) Neutral degradation in normal cells: CH-j is hydrolyzing into Hydroxy-phenyl-acetic acid (M152), 1-(2, 4, 6-Trihydroxy-phenyl)-ethanone (M168) and N-hydroxymethyl-piperidin-4-one (M129) as the main metabolic pathways.
Flavopiridol, p276-00 and Vorciclib of Chrysin-organic amine derivatives, duo to mainly C7-glucose aldehyde acidification metabolites by oral, only a small amount is into the tissue cells. In the tissue cells, it is not easy to be metabolized in part because of the organic amine substituents, thus producing strong cytotoxicity. […] CH-j can enhance I phase metabolism and inhibit II phase metabolism. […] [Scientific Reports, 2015, 5: 13626; Fitoterapia, 2015, 107:36-34.]

Data set [15] deals with H-460 xenograft. Put plainly: H-460 xenograft in BALB/c nude mouse. It counts as in vivo. To be noted: compared with before. How it is done:
The anti-tumor effect of the BALB/c nude mouse model of the non-small cell lung cancer (H-460) was determined by the method [Scientific Reports, 2015, 5: 13626], and the results were shown in FIG. 7. 5 or 10 mg/kg of CH-j, for twice daily 10 days were compared with the control group.
FIG. 7: H-460 carcinoma in male BALB/c nude mice xenograft model, two times a day to fill the stomach to CH-j 5 and 10 mg/kg, for 10 days in a row, X-coordinate is experimental time (days), and Y-coordinate vertical volume of H-460 carcinoma (mm^3).

The values below come from patent US10471054B2, “CDK1 inhibitors of acetyl chrysin mannich base derivatives, synthesis and use thereof” (priority 2016, dated 2019).

Usually IC50 stands for the concentration at which inhibition is half-maximal. Usually AUC(0-inf) stands for the area under the concentration-time curve extrapolated to infinity. Usually bioavailability stands for dose-corrected exposure relative to a reference, in per cent.

Regarding `CC(=O)c1c(O)c(CN2CCC(O)CC2)c2oc(-c3ccccc3)cc(=O)c2c1O` [CH-j, 6-Acetyl-5,7-dihydroxy-8-(4-hydroxy-piperidin-1-ylmethyl)-2-phenyl-chromen-4-one], the “Cell cycle effect by PI staining” value in data set [1] is reported as “block the BGC-823 in G1, G2 phase”. Moreover, the IC50 is 6.3 ± 1.13 µM in [2]; 2.6 µg/mL in data set [4]; 6.3 µM in [4] (MTT, 48 h); 6.5 ± 1.13 µM in data set [5]; 6.2 ± 1.16 µM in [6]; 5.7 ± 1.24 µM in data set [7]. This compound displayed an IC50 in data set [8] of 6 ± 1.5 µM. The HIF-1β expression result in [3] is “without affecting the expression of HIF-1β”. Besides, in [4], the “Anti-proliferative activity, times stronger than BA-j” value came out at 2 times. Also, in [4], the “Anti-proliferative activity, times stronger than Chrysin” value is on record as 5 times. The compound also registered an AUC(0-inf) in data set [9] of 20.4 µM·h. For the same compound, the Autophagy result in [10] was “can cause autophagy”. In addition, the “Concentration in the stomach relative to other tissues” value in data set [11] (100 mg/kg rat, oral, 2 h) is recorded as “about 2 time”. In [11] (in vivo, rat 100 mg/kg, oral compared with intravenous), the bioavailability is roughly 100%. Also, in data set [11] (rat), the “Detection of prototype drug in blood, urine, tissues” value was “In the blood, urine, bile and tissues, the prototype drugs and metabolites can be detected”. The Blood-brain barrier passage entry in [11] (rat 100 mg/kg, 2 h) is “able to pass the blood-brain barrier”. The Bcl-2 expression entry in data set [12] is given as “Bcl-2 expression can be suppressed”. Further, in data set [13], the “Amount of H2O2 released, fold” value is recorded as “about 4 times”. The “Maximum level of H2O2 in cells” value in data set [13] (4 h) was 35 to 45 µM. The “Dependence of metabolic pathway on CYP3A4” value in [14] is “independent of CYP3A4”. Besides, the results for the “Reduction rate of H-460 tumor” value in [15] (5 mg/kg twice daily 10 days) and in data set [15] (10 mg/kg twice daily 10 days) were 90.5%±9.2% and 95.2%±11.6%, respectively.
